According to ChEMBL document CHEMBL1201862, “PubChem BioAssay data set” (2004):
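Assay format: 96-well plates, 48-hour exposure. GI50 marks 50% less growth.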 Active and inactive are the calls of the source. Rule as the data show it: active = GI50 up to about 1.1 µM and inactive = higher.

Legend:
Assay in all cases: NCI anticancer screen, dose series, 48 h
SK-OV-3 = system: SK-OV-3
HT-29 = system: HT-29
SF-295 = system: SF-295
HCC 2998 = system: HCC 2998
U-251 = system: U-251
MDA-MB-435 = system: MDA-MB-435
A549 = system: A549
NCI-H460 = system: NCI-H460
OVCAR-3 = system: OVCAR-3
A498 = system: A498
UO-31 = system: UO-31
MDA-MB-231 = system: MDA-MB-231
LOX IMVI = system: LOX IMVI
KM12 = system: KM12
COLO 205 = system: COLO 205
PC-3 = system: PC-3
T47D = system: T47D
MDA-N = system: MDA-N
IGROV-1 = system: IGROV-1
Hs-578T = system: Hs-578T

Measured: GI50

COc1ccc([S+]([O-])Cc2cc(OC)ccc2OC)cc1 (centres undefined)
inactive: SK-OV-3 > 100 µM | HT-29 > 100 µM | SF-295 > 100 µM | HCC 2998 > 100 µM | U-251 > 100 µM | MDA-MB-435 > 100 µM | A549 > 100 µM | NCI-H460 > 100 µM | OVCAR-3 > 100 µM | A498 > 100 µM | UO-31 > 100 µM | MDA-MB-231 > 100 µM | LOX IMVI > 100 µM | KM12 > 100 µM | COLO 205 > 100 µM | PC-3 > 100 µM | T47D > 100 µM | MDA-N > 100 µM | IGROV-1 > 100 µM

COc1ccc(C2=Nc3cc(C)c(C)cc3NC(c3ccccc3)C2)cc1 (centres undefined)
inactive: SK-OV-3 > 100 µM | HT-29 20.1 µM | SF-295 > 100 µM | HCC 2998 > 100 µM | Hs-578T > 100 µM | U-251 > 100 µM | MDA-MB-435 50.2 µM | A549 44.7 µM | NCI-H460 46.2 µM | OVCAR-3 > 100 µM | A498 > 100 µM | UO-31 57 µM | MDA-MB-231 > 100 µM | LOX IMVI 28.7 µM | KM12 > 100 µM | COLO 205 17.7 µM | PC-3 > 100 µM | T47D 21.7 µM | IGROV-1 > 100 µM

CCOC(=O)c1csc(NC(=O)CN2CCN(C)CC2)n1
inactive: SK-OV-3 > 100 µM | HT-29 > 100 µM | SF-295 > 100 µM | HCC 2998 > 100 µM | U-251 > 100 µM | MDA-MB-435 > 100 µM | A549 > 100 µM | NCI-H460 > 100 µM | OVCAR-3 > 100 µM | A498 > 100 µM | UO-31 > 100 µM | MDA-MB-231 > 100 µM | LOX IMVI > 100 µM | KM12 > 100 µM | COLO 205 > 100 µM | PC-3 > 100 µM | T47D > 100 µM | MDA-N > 100 µM | IGROV-1 > 100 µM

Cc1ccc2c3c1O[C@H]1c4nc5ccccc5cc4C[C@@]4(O)[C@@H](C2)N(CC2CC2)CC[C@]314
inactive: SK-OV-3 14.1 µM | HT-29 3.31 µM | SF-295 7.64 µM | Hs-578T 8.69 µM | U-251 5.74 µM | MDA-MB-435 11.4 µM | A549 6.4 µM | NCI-H460 20 µM | OVCAR-3 11.6 µM | A498 16.5 µM | UO-31 10.4 µM | MDA-MB-231 11.2 µM | LOX IMVI 4.47 µM | KM12 11.1 µM | COLO 205 5.2 µM | PC-3 3.95 µM | T47D 15.8 µM | MDA-N 11.8 µM | IGROV-1 17.5 µM

CCCCOc1ccc(S(=O)(=O)/N=C(\NN)Nc2ccc(Cl)cc2)cc1
inactive: SK-OV-3 27 µM | HT-29 22.3 µM | SF-295 23.4 µM | U-251 16.4 µM | A549 17.8 µM | NCI-H460 16.4 µM | OVCAR-3 20.8 µM | A498 47.1 µM | UO-31 18.2 µM | MDA-MB-231 20.2 µM | LOX IMVI 19.8 µM | KM12 32.7 µM | COLO 205 18 µM | PC-3 17.7 µM | T47D 16.2 µM | MDA-N 32.3 µM | IGROV-1 26.1 µM

COc1ccc(NC2CC(C)N(C(=O)c3ccccc3)O2)cc1 (centres undefined)
inactive: SK-OV-3 > 10 µM | HT-29 > 10 µM | SF-295 > 10 µM | HCC 2998 > 10 µM | Hs-578T > 10 µM | MDA-MB-435 > 10 µM | A549 > 10 µM | NCI-H460 > 10 µM | OVCAR-3 > 10 µM | UO-31 > 10 µM | MDA-MB-231 > 10 µM | LOX IMVI > 10 µM | COLO 205 > 10 µM | PC-3 > 10 µM | T47D > 10 µM | MDA-N > 10 µM | IGROV-1 > 10 µM

O=C(NC1CCC(=O)N1C(=O)OCc1ccccc1)OCc1ccccc1 (centres undefined)
inactive: SK-OV-3 > 100 µM | HT-29 > 100 µM | SF-295 > 100 µM | HCC 2998 > 100 µM | Hs-578T > 100 µM | U-251 > 100 µM | MDA-MB-435 > 100 µM | A549 > 100 µM | NCI-H460 > 100 µM | OVCAR-3 > 100 µM | UO-31 > 100 µM | MDA-MB-231 > 100 µM | KM12 > 100 µM | COLO 205 > 100 µM | PC-3 > 100 µM | MDA-N > 100 µM | IGROV-1 > 100 µM

CC(C)(C)OC(=O)C1/C(=C/CO)CN1C(=O)OC(C)(C)C (centres undefined)
inactive: SK-OV-3 > 100 µM | HT-29 > 100 µM | SF-295 > 100 µM | HCC 2998 > 100 µM | Hs-578T > 100 µM | MDA-MB-435 > 100 µM | A549 > 100 µM | NCI-H460 > 100 µM | OVCAR-3 > 100 µM | A498 > 100 µM | UO-31 > 100 µM | LOX IMVI > 100 µM | COLO 205 > 100 µM | PC-3 > 100 µM | MDA-N > 100 µM | IGROV-1 > 100 µM

CCCCOCn1c(=O)[nH]c(=O)c2cc(Br)ccc21
inactive: SK-OV-3 > 100 µM | HT-29 23.4 µM | SF-295 54.6 µM | HCC 2998 > 100 µM | U-251 95.1 µM | MDA-MB-435 68.2 µM | A549 48.2 µM | OVCAR-3 45.9 µM | A498 54.6 µM | UO-31 18.5 µM | MDA-MB-231 33.8 µM | LOX IMVI 58.5 µM | KM12 36.5 µM | COLO 205 72.1 µM | PC-3 35.2 µM | MDA-N 55.2 µM | IGROV-1 40.6 µM

NN/C(=N\S(=O)(=O)c1cc2ccccc2o1)Nc1ccc(Cl)cc1
inactive: SK-OV-3 42.8 µM | HT-29 > 100 µM | SF-295 63.5 µM | Hs-578T 39.8 µM | U-251 46.6 µM | A549 > 100 µM | NCI-H460 > 100 µM | OVCAR-3 36.6 µM | A498 > 100 µM | UO-31 > 100 µM | MDA-MB-231 67.9 µM | LOX IMVI > 100 µM | KM12 > 100 µM | COLO 205 > 100 µM | PC-3 > 100 µM | T47D 28.2 µM | MDA-N > 100 µM | IGROV-1 53 µM

CC(NC(=O)c1ccccc1)NC(=O)C(C)C(=O)Nc1ccccc1 (centres undefined)
inactive: SK-OV-3 > 100 µM | HT-29 > 100 µM | SF-295 > 100 µM | Hs-578T 32.2 µM | U-251 > 100 µM | MDA-MB-435 > 100 µM | A549 > 100 µM | NCI-H460 > 100 µM | UO-31 > 100 µM | MDA-MB-231 > 100 µM | KM12 > 100 µM | COLO 205 > 100 µM | PC-3 > 100 µM | T47D > 100 µM | MDA-N > 100 µM | IGROV-1 > 100 µM
